Reference: ChEMBL document CHEMBL1201862, “PubChem BioAssay data set” (2004)
Blank lines part the entries; values can stand above or below the molecule they belong to. Calls of active or inactive are those of the source.

Legend:
[1] = molecular target: T1, Nuclear receptor subfamily 0 group B member 1 (Homo sapiens, UniProt P51843); test: Luminescence-based cell-based high throughput dose response assay for inhibitors of the orphan nuclear receptor subfamily 0, group B, member 1 (DAX1; NR0B1). [Related pubchem assays (depositor defined):AID504766, AID504790]; type: functional
T1 sequence (P51843 whole entry): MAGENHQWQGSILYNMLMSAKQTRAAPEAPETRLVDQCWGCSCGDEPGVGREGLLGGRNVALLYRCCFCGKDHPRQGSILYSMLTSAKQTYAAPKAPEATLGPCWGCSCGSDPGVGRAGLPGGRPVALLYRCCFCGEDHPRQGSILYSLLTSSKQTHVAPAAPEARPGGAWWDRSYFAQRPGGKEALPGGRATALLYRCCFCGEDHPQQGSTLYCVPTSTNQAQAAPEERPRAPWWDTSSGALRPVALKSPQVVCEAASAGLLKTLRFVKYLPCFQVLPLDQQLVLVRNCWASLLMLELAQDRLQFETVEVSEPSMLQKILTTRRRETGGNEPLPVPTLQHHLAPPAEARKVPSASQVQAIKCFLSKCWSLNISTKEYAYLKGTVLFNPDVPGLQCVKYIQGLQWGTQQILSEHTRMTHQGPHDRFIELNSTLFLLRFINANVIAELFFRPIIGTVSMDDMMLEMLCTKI

HEK293 = test: cells; type: functional, cell-based; details: Homo sapiens
[2] = molecular target: Voltage-gated inwardly rectifying potassium channel KCNH2 (Homo sapiens, UniProt Q12809); details: Potency;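 also: confirmatory quantitative high-throughput screen measuring inhibition of hERG channel activity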
[3] = molecular target: T2, Type-1 angiotensin II receptor (Homo sapiens, UniProt P30556); test: AT1 receptor antagonists, dose response, selectivity assay for APJ receptor antagonist project, cell-based, uHTS hits (AID 463214); type: functional;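 also: antagonist potency against angiotensin II stimulated AT1 response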
T2 sequence (P30556 whole entry): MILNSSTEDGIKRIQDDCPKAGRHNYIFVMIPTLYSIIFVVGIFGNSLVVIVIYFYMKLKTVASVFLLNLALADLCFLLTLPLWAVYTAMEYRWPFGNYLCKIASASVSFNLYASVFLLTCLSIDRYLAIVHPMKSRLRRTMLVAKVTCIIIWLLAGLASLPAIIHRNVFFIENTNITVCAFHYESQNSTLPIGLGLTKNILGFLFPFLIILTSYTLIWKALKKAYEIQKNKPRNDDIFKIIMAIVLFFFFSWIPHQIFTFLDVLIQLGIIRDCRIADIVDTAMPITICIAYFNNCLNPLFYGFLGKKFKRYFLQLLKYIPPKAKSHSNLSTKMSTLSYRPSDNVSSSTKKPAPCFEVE

Beta-galactosidase = Beta-galactosidase (Escherichia coli, UniProt Q8VNN2); test: PubChem AID 485352; type: functional
Genome polyprotein = Genome polyprotein (dengue virus type 2, UniProt P29990); test: Dengue-2 NS5 methyltransferase inhibitors, primary screen, biochemical, confirmation dose response (AID 588689); type: functional
Cysteine protease ATG4B = Cysteine protease ATG4B (Homo sapiens, UniProt Q9Y4P1); type: functional;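 also: Fluorescence-based dose-response confirmation assay measuring inhibition of ATG4B activity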
Phospholipase A2 = Phospholipase A2 (Homo sapiens, UniProt P04054); type: functional;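 also: confirmatory dose-response counterscreen on phospholipase A2, testing hits that came from an ultra-high-throughput screen for ATG4B inhibitors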
[4] = molecular target: T3, Short transient receptor potential channel 4 (Mus musculus, UniProt Q9QUQ5); test: mouse TRPC4 channel inhibitors, dose response, cell-based, HEK293 TRPC4/mu-opioid, Fluo-4 calcium (AID 434942); type: functional;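 also: potency of inhibitors blocking the TRPC4 calcium response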
T3 sequence (Q9QUQ5 whole entry): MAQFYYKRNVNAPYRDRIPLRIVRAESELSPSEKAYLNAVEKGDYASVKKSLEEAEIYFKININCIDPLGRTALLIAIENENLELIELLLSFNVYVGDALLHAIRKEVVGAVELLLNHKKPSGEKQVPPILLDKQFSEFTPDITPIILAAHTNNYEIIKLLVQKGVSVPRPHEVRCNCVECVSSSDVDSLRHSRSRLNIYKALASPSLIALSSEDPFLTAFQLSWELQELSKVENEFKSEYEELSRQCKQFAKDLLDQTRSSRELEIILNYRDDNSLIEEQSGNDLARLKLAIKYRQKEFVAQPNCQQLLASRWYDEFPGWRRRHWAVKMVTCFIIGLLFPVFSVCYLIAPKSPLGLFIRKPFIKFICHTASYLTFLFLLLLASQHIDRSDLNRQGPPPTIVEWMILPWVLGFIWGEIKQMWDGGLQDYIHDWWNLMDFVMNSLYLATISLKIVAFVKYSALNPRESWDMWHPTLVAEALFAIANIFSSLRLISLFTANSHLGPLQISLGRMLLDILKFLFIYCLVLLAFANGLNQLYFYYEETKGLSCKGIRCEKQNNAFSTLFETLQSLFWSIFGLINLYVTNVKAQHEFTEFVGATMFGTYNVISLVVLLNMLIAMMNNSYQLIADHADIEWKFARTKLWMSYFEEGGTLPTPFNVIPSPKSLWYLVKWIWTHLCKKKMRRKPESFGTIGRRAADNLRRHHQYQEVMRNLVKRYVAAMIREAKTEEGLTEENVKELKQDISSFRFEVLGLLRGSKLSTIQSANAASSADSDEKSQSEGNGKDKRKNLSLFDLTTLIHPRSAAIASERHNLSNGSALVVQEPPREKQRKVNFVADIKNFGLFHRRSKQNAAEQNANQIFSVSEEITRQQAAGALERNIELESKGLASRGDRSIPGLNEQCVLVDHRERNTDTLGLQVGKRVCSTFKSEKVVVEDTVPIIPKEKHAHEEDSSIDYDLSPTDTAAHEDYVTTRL

Caspase-3 = molecular target: T4, Caspase-3 (Homo sapiens, UniProt P42574); test: SAR Analysis of small molecule inhibitors of Sentrin-specific proteases (SENPs) using a Caspase-3 Selectivity assay. [Related pubchem assays (depositor defined):AID2540, AID2599, AID434973, AID489001]; type: functional
T4 sequence (P42574 whole entry): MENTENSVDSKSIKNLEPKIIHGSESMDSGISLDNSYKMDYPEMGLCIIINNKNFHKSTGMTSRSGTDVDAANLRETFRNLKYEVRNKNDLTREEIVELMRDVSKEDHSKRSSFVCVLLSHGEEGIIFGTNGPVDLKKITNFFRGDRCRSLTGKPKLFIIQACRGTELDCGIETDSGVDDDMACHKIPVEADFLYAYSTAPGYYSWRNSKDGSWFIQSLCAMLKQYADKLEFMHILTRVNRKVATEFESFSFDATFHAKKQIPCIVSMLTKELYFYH

[5] = molecular target: T5, Sentrin-specific protease 7 (Homo sapiens, UniProt Q9BQF6); test: SENP7 protease inhibitors, SAR follow-up, biochemical, luminescence (AID 504497); type: functional
T5 sequence (Q9BQF6 whole entry): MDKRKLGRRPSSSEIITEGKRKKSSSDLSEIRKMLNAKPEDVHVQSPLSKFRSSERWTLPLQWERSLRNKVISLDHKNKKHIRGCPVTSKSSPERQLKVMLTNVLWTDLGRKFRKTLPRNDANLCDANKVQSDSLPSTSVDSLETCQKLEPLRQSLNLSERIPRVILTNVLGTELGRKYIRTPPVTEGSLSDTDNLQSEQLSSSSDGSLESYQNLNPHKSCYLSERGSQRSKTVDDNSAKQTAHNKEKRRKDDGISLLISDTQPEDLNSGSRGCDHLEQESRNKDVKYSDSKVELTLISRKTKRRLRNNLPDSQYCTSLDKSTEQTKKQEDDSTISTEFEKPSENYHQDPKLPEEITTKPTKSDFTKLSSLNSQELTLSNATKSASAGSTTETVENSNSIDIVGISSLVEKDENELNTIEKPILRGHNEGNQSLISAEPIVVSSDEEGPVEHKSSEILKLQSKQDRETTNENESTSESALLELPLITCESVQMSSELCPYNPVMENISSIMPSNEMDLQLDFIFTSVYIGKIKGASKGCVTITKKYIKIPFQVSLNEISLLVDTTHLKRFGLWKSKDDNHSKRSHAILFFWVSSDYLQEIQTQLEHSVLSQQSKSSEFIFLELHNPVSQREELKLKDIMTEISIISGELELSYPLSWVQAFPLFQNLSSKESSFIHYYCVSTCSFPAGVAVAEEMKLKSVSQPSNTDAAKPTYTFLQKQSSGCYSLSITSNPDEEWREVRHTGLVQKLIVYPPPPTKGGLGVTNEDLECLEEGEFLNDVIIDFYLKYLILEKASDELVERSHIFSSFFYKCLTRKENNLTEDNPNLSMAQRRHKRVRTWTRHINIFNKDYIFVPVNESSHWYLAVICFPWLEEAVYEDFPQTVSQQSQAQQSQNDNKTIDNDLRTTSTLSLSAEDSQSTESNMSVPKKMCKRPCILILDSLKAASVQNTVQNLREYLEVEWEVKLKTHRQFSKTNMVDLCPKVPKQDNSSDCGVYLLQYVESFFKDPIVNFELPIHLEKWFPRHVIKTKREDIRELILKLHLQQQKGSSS

[6] = molecular target: T6, Sentrin-specific protease 6 (Homo sapiens, UniProt Q9GZR1); test: SAR Analysis of small molecule inhibitors of Sentrin-specific protease 6 (SENP6) using a Luminescent assay. [Related pubchem assays (depositor defined):AID2582, AID2599]; type: functional
T6 sequence (Q9GZR1 whole entry): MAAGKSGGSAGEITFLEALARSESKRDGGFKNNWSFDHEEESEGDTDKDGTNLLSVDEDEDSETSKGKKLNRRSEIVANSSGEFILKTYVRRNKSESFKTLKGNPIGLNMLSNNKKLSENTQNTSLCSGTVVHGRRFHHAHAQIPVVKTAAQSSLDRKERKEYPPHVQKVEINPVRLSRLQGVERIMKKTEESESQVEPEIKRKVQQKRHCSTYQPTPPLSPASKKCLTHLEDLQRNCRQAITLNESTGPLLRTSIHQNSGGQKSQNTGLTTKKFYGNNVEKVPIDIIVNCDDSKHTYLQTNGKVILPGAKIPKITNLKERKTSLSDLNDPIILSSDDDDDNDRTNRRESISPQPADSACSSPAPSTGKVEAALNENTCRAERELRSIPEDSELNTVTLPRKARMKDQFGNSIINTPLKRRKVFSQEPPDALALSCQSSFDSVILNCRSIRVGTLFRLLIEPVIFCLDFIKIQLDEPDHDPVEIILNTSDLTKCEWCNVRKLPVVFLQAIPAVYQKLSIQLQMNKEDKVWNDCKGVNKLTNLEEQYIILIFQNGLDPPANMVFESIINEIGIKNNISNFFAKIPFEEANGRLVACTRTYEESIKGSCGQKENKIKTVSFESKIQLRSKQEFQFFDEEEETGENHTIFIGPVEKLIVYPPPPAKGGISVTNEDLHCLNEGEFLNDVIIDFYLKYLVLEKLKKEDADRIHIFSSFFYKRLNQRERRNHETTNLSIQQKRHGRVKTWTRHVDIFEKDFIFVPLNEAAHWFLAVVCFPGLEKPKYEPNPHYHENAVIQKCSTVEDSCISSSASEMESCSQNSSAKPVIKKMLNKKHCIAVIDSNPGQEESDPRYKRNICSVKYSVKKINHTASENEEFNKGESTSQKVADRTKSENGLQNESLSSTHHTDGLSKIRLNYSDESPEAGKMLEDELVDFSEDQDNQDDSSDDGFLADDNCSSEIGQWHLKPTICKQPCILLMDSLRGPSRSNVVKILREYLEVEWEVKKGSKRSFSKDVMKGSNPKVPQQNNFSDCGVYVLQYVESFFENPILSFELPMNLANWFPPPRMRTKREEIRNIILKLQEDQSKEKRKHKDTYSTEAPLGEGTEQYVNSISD

[7] = molecular target: T7, Sentrin-specific protease 8 (Homo sapiens, UniProt Q96LD8); test: SENP8 protease inhibitors, SAR follow-up, biochemical, luminescence (AID 504501); type: functional
T7 sequence (Q96LD8 whole entry): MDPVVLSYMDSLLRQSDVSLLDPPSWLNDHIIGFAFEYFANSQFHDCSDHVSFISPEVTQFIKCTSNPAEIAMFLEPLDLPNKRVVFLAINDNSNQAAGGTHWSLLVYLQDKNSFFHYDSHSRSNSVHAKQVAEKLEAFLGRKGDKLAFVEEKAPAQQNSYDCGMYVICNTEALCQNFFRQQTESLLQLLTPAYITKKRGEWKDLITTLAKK

[8] = ARNT/TACC3 interaction disruptors, potency, confirmation, biochemical, AlphaScreen, cherry-picked samples (AID 651703); type: functional, Homo sapiens;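 also: His-tagged ARNT PAS-B domain paired with GST-TACC3 E629A dimer coactivator fragment; potency of inhibitors that break up the complex and lower AlphaScreen signal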

Sequence of Beta-galactosidase (Q8VNN2 whole entry): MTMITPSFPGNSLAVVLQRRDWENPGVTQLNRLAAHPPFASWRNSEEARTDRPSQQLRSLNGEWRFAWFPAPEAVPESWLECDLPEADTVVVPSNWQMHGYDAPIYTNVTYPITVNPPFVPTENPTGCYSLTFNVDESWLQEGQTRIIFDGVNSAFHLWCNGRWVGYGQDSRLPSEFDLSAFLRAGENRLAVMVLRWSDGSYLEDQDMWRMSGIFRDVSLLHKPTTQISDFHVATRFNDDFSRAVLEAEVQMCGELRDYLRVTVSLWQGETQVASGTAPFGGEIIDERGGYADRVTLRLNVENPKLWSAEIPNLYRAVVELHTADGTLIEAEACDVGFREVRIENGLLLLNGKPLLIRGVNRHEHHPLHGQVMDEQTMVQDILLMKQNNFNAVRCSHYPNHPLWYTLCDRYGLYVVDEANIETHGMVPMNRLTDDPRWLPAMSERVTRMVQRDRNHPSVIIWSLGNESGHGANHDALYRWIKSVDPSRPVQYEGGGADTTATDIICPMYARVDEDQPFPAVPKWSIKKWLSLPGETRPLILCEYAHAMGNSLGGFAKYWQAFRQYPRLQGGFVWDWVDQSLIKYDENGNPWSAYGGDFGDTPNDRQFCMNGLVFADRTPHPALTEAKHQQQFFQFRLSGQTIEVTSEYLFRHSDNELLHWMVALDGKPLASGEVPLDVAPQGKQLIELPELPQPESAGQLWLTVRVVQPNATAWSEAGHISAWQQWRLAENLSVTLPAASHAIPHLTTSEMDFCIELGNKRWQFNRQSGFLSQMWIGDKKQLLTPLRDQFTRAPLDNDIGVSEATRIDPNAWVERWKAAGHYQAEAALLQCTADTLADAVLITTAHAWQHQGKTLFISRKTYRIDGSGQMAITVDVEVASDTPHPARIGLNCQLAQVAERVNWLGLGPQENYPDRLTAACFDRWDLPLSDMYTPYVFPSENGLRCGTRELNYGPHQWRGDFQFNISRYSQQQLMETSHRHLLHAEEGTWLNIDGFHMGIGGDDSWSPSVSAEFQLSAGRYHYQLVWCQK
Sequence of Cysteine protease ATG4B (Q9Y4P1 whole entry): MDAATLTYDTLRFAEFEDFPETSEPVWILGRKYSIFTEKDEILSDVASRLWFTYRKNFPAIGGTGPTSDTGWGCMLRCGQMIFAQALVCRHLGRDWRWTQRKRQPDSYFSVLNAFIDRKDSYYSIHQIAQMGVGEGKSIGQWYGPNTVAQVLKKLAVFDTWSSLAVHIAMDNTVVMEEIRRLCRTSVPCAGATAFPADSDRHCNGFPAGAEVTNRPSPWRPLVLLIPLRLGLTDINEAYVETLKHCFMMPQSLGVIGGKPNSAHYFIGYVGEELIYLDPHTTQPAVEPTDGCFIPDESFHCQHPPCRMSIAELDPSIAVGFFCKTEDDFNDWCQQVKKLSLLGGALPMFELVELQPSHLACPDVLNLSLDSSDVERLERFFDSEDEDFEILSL
Sequence of Phospholipase A2 (P04054 whole entry): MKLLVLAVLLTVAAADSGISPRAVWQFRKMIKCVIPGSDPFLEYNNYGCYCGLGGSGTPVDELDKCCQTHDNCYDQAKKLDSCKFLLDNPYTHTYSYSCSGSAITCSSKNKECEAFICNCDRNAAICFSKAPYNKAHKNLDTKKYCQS
Sequence of Voltage-gated inwardly rectifying potassium channel KCNH2 (Q12809 whole entry): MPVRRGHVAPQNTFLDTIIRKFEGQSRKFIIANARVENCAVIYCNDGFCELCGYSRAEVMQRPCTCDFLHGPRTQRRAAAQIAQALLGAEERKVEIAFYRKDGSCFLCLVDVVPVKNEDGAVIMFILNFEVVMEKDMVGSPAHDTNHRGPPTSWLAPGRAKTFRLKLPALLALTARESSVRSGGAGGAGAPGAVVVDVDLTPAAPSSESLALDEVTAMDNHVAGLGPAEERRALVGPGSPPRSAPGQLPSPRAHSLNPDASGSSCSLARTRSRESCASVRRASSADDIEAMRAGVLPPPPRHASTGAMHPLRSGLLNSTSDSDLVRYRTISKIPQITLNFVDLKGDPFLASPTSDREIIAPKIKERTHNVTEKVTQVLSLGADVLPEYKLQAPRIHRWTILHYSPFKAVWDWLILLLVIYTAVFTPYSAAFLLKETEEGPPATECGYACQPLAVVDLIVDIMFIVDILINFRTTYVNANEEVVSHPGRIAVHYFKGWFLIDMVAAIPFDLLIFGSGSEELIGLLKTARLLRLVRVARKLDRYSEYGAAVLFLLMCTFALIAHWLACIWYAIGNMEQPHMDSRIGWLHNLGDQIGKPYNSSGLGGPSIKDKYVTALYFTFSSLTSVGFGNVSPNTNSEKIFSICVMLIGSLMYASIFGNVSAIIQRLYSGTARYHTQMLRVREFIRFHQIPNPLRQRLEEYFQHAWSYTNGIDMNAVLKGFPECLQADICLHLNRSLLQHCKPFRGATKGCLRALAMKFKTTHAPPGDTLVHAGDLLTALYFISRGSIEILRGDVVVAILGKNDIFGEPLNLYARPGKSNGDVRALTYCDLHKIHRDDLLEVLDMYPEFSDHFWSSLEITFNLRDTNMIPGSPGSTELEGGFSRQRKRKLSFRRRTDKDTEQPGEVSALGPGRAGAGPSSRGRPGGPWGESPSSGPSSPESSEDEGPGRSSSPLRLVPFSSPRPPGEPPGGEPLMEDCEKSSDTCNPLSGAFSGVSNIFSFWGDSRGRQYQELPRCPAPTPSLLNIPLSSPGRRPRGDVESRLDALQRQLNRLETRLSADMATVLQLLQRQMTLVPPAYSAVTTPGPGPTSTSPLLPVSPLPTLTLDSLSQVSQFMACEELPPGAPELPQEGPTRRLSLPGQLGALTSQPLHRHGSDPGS
Sequence of Genome polyprotein (P29990 2492-3391 limits assumed): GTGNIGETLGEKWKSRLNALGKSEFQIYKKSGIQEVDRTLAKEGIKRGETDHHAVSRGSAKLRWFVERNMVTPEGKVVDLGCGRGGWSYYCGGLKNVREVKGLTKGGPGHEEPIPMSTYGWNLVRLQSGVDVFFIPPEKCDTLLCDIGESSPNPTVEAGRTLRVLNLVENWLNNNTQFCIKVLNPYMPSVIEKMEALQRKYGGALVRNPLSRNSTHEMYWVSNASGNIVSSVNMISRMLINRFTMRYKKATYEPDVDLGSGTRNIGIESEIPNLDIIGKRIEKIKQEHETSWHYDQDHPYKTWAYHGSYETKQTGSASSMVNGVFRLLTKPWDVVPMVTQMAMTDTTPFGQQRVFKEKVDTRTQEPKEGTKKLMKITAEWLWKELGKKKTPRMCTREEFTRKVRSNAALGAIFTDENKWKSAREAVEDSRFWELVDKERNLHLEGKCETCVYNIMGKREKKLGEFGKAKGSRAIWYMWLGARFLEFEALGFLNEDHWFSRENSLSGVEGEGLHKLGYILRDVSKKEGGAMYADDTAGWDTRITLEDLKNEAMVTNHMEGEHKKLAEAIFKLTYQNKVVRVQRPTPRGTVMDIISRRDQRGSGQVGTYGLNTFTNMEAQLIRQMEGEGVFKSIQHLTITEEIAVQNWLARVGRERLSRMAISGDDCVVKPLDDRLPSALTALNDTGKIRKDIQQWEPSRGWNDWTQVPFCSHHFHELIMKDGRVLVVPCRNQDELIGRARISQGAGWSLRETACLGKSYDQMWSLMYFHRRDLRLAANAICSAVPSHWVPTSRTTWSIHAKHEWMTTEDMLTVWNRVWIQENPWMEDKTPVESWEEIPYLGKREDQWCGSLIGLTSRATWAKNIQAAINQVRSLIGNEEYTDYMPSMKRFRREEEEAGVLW

IC50 [3]: 27.3 µM (not active) | EC50 (Beta-galactosidase): > 40 µM (inactive)
Structure (SMILES): O=C(CNC(=O)c1ccc(Br)o1)OCC(=O)c1cccc([N+](=O)[O-])c1

IC50 (Genome polyprotein): 39.1 µM (active) | IC50 (Cysteine protease ATG4B): 9.14 µM (active) | IC50 (Phospholipase A2): 10.6 µM (active) | EC50 [4]: 5.96 µM (active)
Structure (SMILES): Cc1ccc(/C=C2\SC(=S)N(C(Cc3ccccc3)C(=O)O)C2=O)cc1 (centres undefined)

IC50 (Caspase-3): > 99 µM (inactive) | IC50 [5]: > 99 µM (inactive) | IC50 [6]: > 99 µM (inactive)
Structure (SMILES): CN(C)CCN(C(=O)c1ccc(S(=O)(=O)N2CCCCCC2)cc1)c1nc2cc3c(cc2s1)OCCO3
IC50 [7]: > 99 µM (inactive)

IC50 (Cysteine protease ATG4B): 9.46 µM (active) | IC50 (Phospholipase A2): 5.58 µM (active)
Structure (SMILES): CCCCCCOc1ccc(N2C(=O)CC(SC(=N)N/N=C(\C)c3cccs3)C2=O)cc1 (centres undefined)

Second part, the molecule before the results:

Structure (SMILES): CC(=O)c1csc(COc2ccc(Cl)cc2)n1
IC50 [1]: > 67.6 µM (inactive) | IC50 (HEK293): > 67.6 µM (inactive)

Structure (SMILES): CCCCCCCCCCCCCCC[C@H](O)[C@H](N)CO
AC50 [2]: 35.5 µM (inconclusive)

Structure (SMILES): O=C(O)Cc1nn(Cc2ccc(Cl)cc2)c(=O)c2ccccc12
IC50 [1]: > 67.5 µM (inactive) | IC50 (HEK293): > 67.5 µM (inactive)

Structure (SMILES): Cc1nn(CC(=O)Nc2sc3c(c2C#N)CCCC3)c(C)c1I
IC50 (Caspase-3): > 99 µM (inactive) | IC50 [5]: > 99 µM (inactive) | IC50 [6]: > 99 µM (inactive) | IC50 [7]: > 99 µM (inactive)

Structure (SMILES): Cc1ccc(/C=N/NC(=S)N2CCOCC2)cc1
IC50 [3]: 8.6 µM (active) | EC50 (Beta-galactosidase): > 40 µM (inactive) | AC50 [8]: 112 µM (active)
